From article PMC9021598, “Structural Basis of Human Dimeric α-Amino-β-Carboxymuconate-ε-Semialdehyde Decarboxylase Inhibition With TES-1025” (Frontiers in Molecular Biosciences, 2022)

Target: T1, human α-amino-β-carboxymuconate-ε-semialdehyde decarboxylase (ACMSD) (Homo sapiens, UniProt Q8TDX5)
T1 construct: recombinant hACMSD expressed in Pichia pastoris; homodimer
Experiment: X-ray co-crystal structure at […] Å; Ki from coupled spectrophotometric assay (Dixon tight-binding competitive inhibition)
Type: biochemical

T1 sequence (Q8TDX5 whole entry): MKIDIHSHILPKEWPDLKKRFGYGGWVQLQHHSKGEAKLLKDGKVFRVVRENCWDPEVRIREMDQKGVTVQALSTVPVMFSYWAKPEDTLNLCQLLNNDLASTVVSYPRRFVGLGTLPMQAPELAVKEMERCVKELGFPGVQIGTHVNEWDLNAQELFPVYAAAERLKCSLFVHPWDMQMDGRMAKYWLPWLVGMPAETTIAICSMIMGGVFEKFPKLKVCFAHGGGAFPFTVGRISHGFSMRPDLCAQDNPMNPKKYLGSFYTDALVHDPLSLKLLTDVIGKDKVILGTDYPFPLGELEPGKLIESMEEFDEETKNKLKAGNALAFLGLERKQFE

Ki: 0.85 ± 0.22 nM
SMILES: N#Cc1c(-c2cccs2)nc(SCc2cccc(CC(=O)O)c2)[nH]c1=O [compound 4, 2-[3-[(5-cyano-6-oxo-4-thiophen-2-yl-1H-pyrimidin-2-yl)sulfanylmethyl]phenyl]acetic acid]
